Structures are written as SMILES. pKi: −log10 of the molar value. Values joined by “and” are separate entries in the source; they are usually repeats but may differ in a detail not shown here. Equal entries are not always repeated. Structures can show the parent of a compound that is named as a salt. Some results are limits rather than exact numbers.

The target in the first assay is T1, recombinant human beta tryptase (Homo sapiens, UniProt P20231).
T1 construct: made in house; host or cells: yeast cells
T1 sequence (P20231 31-275): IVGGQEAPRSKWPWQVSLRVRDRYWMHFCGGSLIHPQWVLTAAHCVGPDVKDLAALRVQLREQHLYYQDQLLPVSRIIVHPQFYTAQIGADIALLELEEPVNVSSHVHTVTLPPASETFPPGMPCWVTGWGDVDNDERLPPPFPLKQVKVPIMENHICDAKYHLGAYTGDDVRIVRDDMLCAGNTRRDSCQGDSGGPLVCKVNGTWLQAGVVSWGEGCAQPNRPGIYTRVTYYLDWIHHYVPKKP
The assay is described as follows: beta-Tryptase inhibition, chromogenic enzyme assay (substrate S2366, read at 405 nm). It counts as biochemical. Particulars: Ki calculated from IC50: Ki=IC50/(1+[Substrate]/Km); 0.5 mM substrate, room temperature; read-out: Tryptase Ki. The source says: Inhibition of this catalytic activity may be measured by the in vitro enzyme assay and the cellular assay.
Tryptase inhibition activity is confirmed using either isolated human lung tryptase or recombinant human beta tryptase expressed in yeast cells. Essentially equivalent results are obtained using isolated native enzyme or the expressed enzyme. The assay procedure employs a 96 well microplate (Costar 3590) using L-pyroglutamyl-L-prolyl-L-arginine-para-nitroanilide (S2366: Quadratech) as substrate (essentially as described by McEuen et. al. Biochem Pharm, 1996, 52, pages 331-340). Assays are performed at room temperature using 0.5 mM substrate (2×Km) and the microplate is read on a microplate reader (Beckman Biomek Plate reader) at 405 nm wavelength.
Materials and Methods for Tryptase primary screen (Chromogenic assay)
S2366 (Stock solutions of 2.5 mM).
Purified recombinant beta Tryptase Stocks of 310 μg/mL. Protocol (Single point determination) • Add 60 μL of diluted substrate (final concentration of 500 μM in assay buffer) to each well • Add compound in duplicates, final concentration of 20 volume 20 • Add enzyme at a final concentration of 50 ng/mL in a volume of 20 • Total volume for each well is 100 • Agitate briefly to mix and incubate at room temp in the dark for 30 minutes • Read absorbencies at […] Each plate has the following controls: • Totals: 60 μL of substrate, 20 μL of buffer (with 0.2% final concentration of DMSO), • 20 μL of enzyme Non-specific: 60 μL of substrate, 40 μL of buffer (with 0.2% DMSO) Totals: 60 μL of substrate, 20 μL of buffer (No DMSO), 20 μL of enzyme Non-specific: 60 μL of substrate, 40 μL of buffer (No DMSO) Protocol (IC50 and Ki determination)
The protocol is essentially the same as above except that the compound is added in duplicates at the following final concentrations: 0.01, 0.03, 0.1, 0.3, 1, 3, 10 μM (All dilutions carried out manually). For every assay, whether single point or IC50 determination, a standard compound is used to derive IC50 for comparison. From the IC50 value, the Ki can be calculated using the following formula: Ki=IC50/(1+[Substrate]/Km).
Turning to `CCN(CC)CCn1cc(C(=O)N2CCC(c3cc(CN)ccc3F)CC2)c2ccccc21` [Example 37, [4-(5-Aminomethyl-2-fluoro-phenyl)-piperidin-1-yl]-[1-(2-diethylamino-ethyl)-1H-indol-3-yl]-methanone dihydrochloride], the pKi is 7.06. For the compound `NCc1ccc(F)c(C2CCN(C(=O)c3cn(CCN4CCCC4)c4ccccc34)CC2)c1` [Example 38, [4-(5-Aminomethyl-2-fluoro-phenyl)-piperidin-1-yl]-[1-(2-pyrrolidin-1-yl-ethyl)-1H-indol-3-yl]-methanone dihydrochloride], the pKi is 7.18.

Consider `NCc1ccc(F)c(C2CCN(C(=O)c3cn(CCc4ccccn4)c4ccccc34)CC2)c1` [Example 40, [4-(5-Aminomethyl-2-fluoro-phenyl)-piperidin-1-yl]-[1-(2-pyridin-2-yl-ethyl)-1H-indol-3-yl]-methanone dihydrochloride], for which the pKi is 7.60. With `NCc1ccc(F)c(C2CCN(C(=O)c3cn(CCN4CCCCC4)c4ccccc34)CC2)c1` [Example 41, [4-(5-Aminomethyl-2-fluoro-phenyl)-piperidin-1-yl]-[1-(2-piperidin-1-yl-ethyl)-1H-indol-3-yl]-methanone dihydrochloride], the pKi was 7.21.

As for `COCCn1cc(C(=O)N2CCC(c3cc(CN)ccc3F)CC2)c2c(Cl)cccc21` [Example 42, [4-(5-Aminomethyl-2-fluoro-phenyl)-piperidin-1-yl]-[4-chloro-1-(2-methoxy-ethyl)-1H-indol-3-yl]-methanone], the pKi is 6.91.

The same assay, now with this note: Tryptase Ki (nM), Ki calculated from IC50: Ki=IC50/(1+[Substrate]/Km); 0.5 mM substrate, room temperature.
With `NCc1ccc(F)c(C2CCN(C(=O)c3cn(CCOCCO)c4c(OC(F)(F)F)cccc34)CC2)c1` [Example 27, [4-(5-Aminomethyl-2-fluoro-phenyl)-piperidin-1-yl]-{1-[2-(2-hydroxy-ethoxy)-ethyl]-7-trifluoromethoxy-1H-indol-3-yl}-methanone hydrochloride], the Ki is 164 nM.

Regarding `CNC(=O)COc1ccc(CN)cc1C1CCN(C(=O)c2cn(CCOC)c3c(OC(F)(F)F)cccc23)CC1` [Example 28, 2-(4-Aminomethyl-2-{1-[1-(2-methoxy-ethyl)-7-trifluoromethoxy-1H-indole-3-carbonyl]-piperidin-4-yl}-phenoxy)-N-methyl-acetamide hydrochloride], the Ki was 538 nM.

In the case of `COCCn1cc(C(=O)N2CCC(c3cc(CN)ccc3OCC(=O)N(C)C)CC2)c2cccc(OC(F)(F)F)c21` [Example 29, 2-(4-Aminomethyl-2-{1-[1-(2-methoxy-ethyl)-7-trifluoromethoxy-1H-indole-3-carbonyl]-piperidin-4-yl}-phenoxy)-N,N-dimethyl-acetamide hydrochloride], the Ki was 331 nM. On the same count and under the same terms, the value for `CN1CCCCC1CCn1cc(C(=O)N2CCC(c3cc(CN)ccc3F)CC2)c2ccccc21` (centres unmarked) [Example 30, [4-(5-Aminomethyl-2-fluoro-phenyl)-piperidin-1-yl]-{1-[2-(1-methyl-piperidin-2-yl)-ethyl]-1H-indol-3-yl}-methanone dihydrochloride] was 50 nM; that for `COCCn1cc(C(=O)N2CCC(c3cc(CN)ccc3OCC(N)=O)CC2)c2cccc(C)c21` [Example 31, 2-(4-Aminomethyl-2-{1-[1-(2-methoxy-ethyl)-7-methyl-1H-indole-3-carbonyl]-piperidin-4-yl}-phenoxy)-acetamide hydrochloride] was 306 nM; that for `COCCn1cc(C(=O)N2CCC(c3cc(CN)ccc3OCC(N)=O)CC2)c2cccc(OC(F)(F)F)c21` [Example 32, 2-(4-Aminomethyl-2-{1-[1-(2-methoxy-ethyl)-7-trifluoromethoxy-1H-indole-3-carbonyl]-piperidin-4-yl}-phenoxy)-acetamide hydrochloride] was 1280 nM. For `NCc1ccc(F)c(C2CCN(C(=O)c3cn(CCCF)c4c(OC(F)(F)F)cccc34)CC2)c1` [Example 34, [4-(5-Aminomethyl-2-fluoro-phenyl)-piperidin-1-yl]-[1-(3-fluoro-propyl)-7-trifluoromethoxy-1H-indol-3-yl]-methanone hydrochloride], the Ki was 1010 nM. The same measure, in the same setting: the value for `NCc1ccc(F)c(C2CCN(C(=O)c3cn(CCc4ccncc4)c4ccccc34)CC2)c1` [Example 35, [4-(5-Aminomethyl-2-fluoro-phenyl)-piperidin-1-yl]-[1-(2-pyridin-4-yl-ethyl)-1H-indol-3-yl]-methanone dihydrochloride] was 8.6 nM; that for `COCCn1cc(C(=O)N2CCC(c3cc(CN)ccc3F)CC2)c2cccc(F)c21` [Example 39, [4-(5-Aminomethyl-2-fluoro-phenyl)-piperidin-1-yl]-[7-fluoro-1-(2-methoxy-ethyl)-1H-indol-3-yl]-methanone hydrochloride] was 10 nM. Still for that read-out and setting: the result for `CCCCn1cc(C(=O)N2CCC(c3cc(CN)ccc3F)CC2)c2cccc(OC(F)(F)F)c21` [Example 43, [4-(5-Aminomethyl-2-fluoro-phenyl)-piperidin-1-yl]-(1-butyl-7-trifluoromethoxy-1H-indol-3-yl)-methanone hydrochloride] reads 850 nM; that for `COCCn1cc(C(=O)N2CCC(c3cc(CN)ccc3F)CC2)c2c(C)cccc21` [Example 44, [4-(5-Aminomethyl-2-fluoro-phenyl)-piperidin-1-yl]-[1-(2-methoxy-ethyl)-4-methyl-1H-indol-3-yl]-methanone hydrochloride], 51 nM. Consider `NCc1ccc(F)c(C2CCN(C(=O)c3cn(CC(F)(F)c4ccccc4)c4ccccc34)CC2)c1` [Example 45, [4-(5-Aminomethyl-2-fluoro-phenyl)-piperidin-1-yl]-[1-(2,2-difluoro-2-phenyl-ethyl)-1H-indol-3-yl]-methanone hydrochloride], for which the Ki was 753 nM. Turning to `CCCCn1cc(C(=O)N2CCC(c3cc(CN)ccc3F)CC2)c2c(OC)cccc21` [Example 46, [4-(5-Aminomethyl-2-fluoro-phenyl)-piperidin-1-yl]-(1-butyl-4-methoxy-1H-indol-3-yl)-methanone hydrochloride], the Ki was 94 nM. For the compound `COCCn1cc(C(=O)N2CCC(c3cc(CN)ccc3F)CC2)c2c(OC)cccc21` [Example 47, [4-(5-Aminomethyl-2-fluoro-phenyl)-piperidin-1-yl]-[4-methoxy-1-(2-methoxy-ethyl)-1H-indol-3-yl]-methanone hydrochloride], the Ki is 56 nM and 59 nM.

Take `COCCn1cc(C(=O)N2CCC(c3cc(CN)ccc3F)CC2)c2c(Br)cccc21` [Example 48, [4-(5-Aminomethyl-2-fluoro-phenyl)-piperidin-1-yl]-[4-bromo-1-(2-methoxy-ethyl)-1H-indol-3-yl]-methanone hydrochloride]: the Ki was 125 nM. Still for that read-out and setting: the value for `NCc1ccc(F)c(C2CCN(C(=O)c3cn4c5c(cccc35)OCC4)CC2)c1` [Example 49, [4-(5-Aminomethyl-2-fluoro-phenyl)-piperidin-1-yl]-(2,3-dihydro-pyrrolo[1,2,3-de]-1,4-benzoxazin-6-yl)-methanone hydrochloride] was 291 nM.

Take `CC(C)(O)CCn1cc(C(=O)N2CCC(c3cc(CN)ccc3F)CC2)c2ccccc21` [Example 50, [4-(5-Aminomethyl-2-fluoro-phenyl)-piperidin-1-yl]-[1-(3-hydroxy-3-methyl-butyl)-1H-indol-3-yl]-methanone hydrochloride]: the Ki was 241 nM. Still for that read-out and setting: the value for `COCCn1cc(C(=O)N2CCC(c3cc(CN)ccc3F)CC2)c2c(F)cccc21` [Example 51, [4-(5-Aminomethyl-2-fluoro-phenyl)-piperidin-1-yl]-[4-fluoro-1-(2-methoxy-ethyl)-1H-indol-3-yl]-methanone hydrochloride] was 54 nM. As to `COCCn1cc(C(=O)N2CCC(c3cc(CN)ccc3F)CC2)c2c(C3CC3)cccc21` [Example 52, [4-(5-Aminomethyl-2-fluoro-phenyl)-piperidin-1-yl]-[4-cyclopropyl-1-(2-methoxy-ethyl)-1H-indol-3-yl]-methanone hydrochloride], the Ki is 49 nM. With `COCCn1cc(C(=O)N2CCC(c3cc(CN)ccc3F)CC2)c2c(C(F)(F)F)cccc21` [Example 53, [4-(5-Aminomethyl-2-fluoro-phenyl)-piperidin-1-yl]-[1-(2-methoxy-ethyl)-4-trifluoromethyl-1H-indol-3-yl]-methanone hydrochloride], the Ki is 289 nM.

The assay is the same for the next values; noted with them: Tryptase Ki, cell prints its own unit uM under a head in nM.
On to `COCCn1cc(C(=O)N2CCC(c3cc(CN)ccc3OCC(=O)O)CC2)c2cccc(C)c21` [Example 33, (4-Aminomethyl-2-{1-[1-(2-methoxy-ethyl)-7-methyl-1H-indole-3-carbonyl]-piperidin-4-yl}-phenoxy)-acetic acid hydrochloride], for which the Ki is above 10000 nM.

The record behind these values is US20120245161A1 (SANOFI, priority 2009, published 2012).
